Data set [1] has as its system Serum. In words: Metabolic stability in Sprague-Dawley rat serum assessed as formation of (S)-(N,N-dimethylphenylalanyl)-(2S,3S)-3[(p-formylphenoxyl)leucyl]-(S)-leucine) after 30 mins by HPLC. The data set is classed as ADME, cell-free. To be noted: 0.5 h.
The subject of data set [2] is Serum. In words: Metabolic stability in Sprague-Dawley rat serum assessed as initial rate of compound cleavage at 0.10 mM after 10 mins by HPLC in presence of 10 uM eserine. To be noted: 100 µM. The format is ADME, cell-free.
Data set [3] deals with Serum. In words: Metabolic stability in Sprague-Dawley rat serum assessed as initial rate of compound cleavage at 0.10 mM after 10 mins by HPLC in presence of 2 mM (phenylmethyl)sulfonyl fluoride. To be noted: 100 µM. The format is ADME, cell-free.
The test system of data set [4] is Serum. In words: Metabolic stability in Sprague-Dawley rat serum assessed as formation of (S)-(N,N-dimethylphenylalanyl)-(2S,3S)-3[(p-formylphenoxyl)leucyl]-(S)-leucine) at 50 mg/kg, po after 30 mins by HPLC. The format is ADME, organism-based. To be noted: in vivo, 0.5 h. The arrangement: dose 50 mg/kg, route oral.
The test system of data set [5] is Serum. The data set can be described thus: Metabolic stability in bovine serum assessed as formation of (S)-(N,N-dimethylphenylalanyl)-(2S,3S)-3[(p-formylphenoxyl)leucyl]-(S)-leucine) after 1 hr by HPLC. The data set is classed as ADME, cell-free, Bos taurus. To be noted: cattle.
The test system of data set [6] is Serum. The data set can be described thus: Metabolic stability in Sprague-Dawley rat serum assessed as initial rate of compound cleavage at 0.10 mM after 10 mins by HPLC. The data set is classed as ADME, cell-free. The conditions noted are these: 100 µM.
Data set [7] concerns Serum. The data set can be described thus: Metabolic stability in Sprague-Dawley rat serum assessed as formation of (S)-(N,N-dimethylphenylalanyl)-(2S,3S)-3[(p-formylphenoxyl)leucyl]-(S)-leucine) at 25 mg/kg, po after 10 mins by HPLC. The data set is classed as ADME, organism-based. Details: dose 25 mg/kg, route oral. To be noted: in vivo.
For data set [8], the system named is Serum. The data set can be described thus: Metabolic stability in Sprague-Dawley rat serum assessed as initial rate of compound cleavage at 0.10 mM after 10 mins by HPLC in presence of 2 mM eserine. The format is ADME, cell-free. The conditions noted are these: 100 µM.
The subject of data set [9] is Serum. The data set can be described thus: Metabolic stability in Sprague-Dawley rat serum assessed as initial rate of compound cleavage at 0.10 mM after 10 mins by HPLC in presence of 2 mM p-chloromercuribenzoic acid. The data set is classed as ADME, cell-free. The conditions noted are these: 100 µM.
The subject of data set [10] is Serum. In words: Metabolic stability in Sprague-Dawley rat serum assessed as initial rate of compound cleavage at 0.10 mM after 10 mins by HPLC in presence of 2 mM EDTA. The format is ADME, cell-free. To be noted: 100 µM.
A short description of data set [11]: Metabolic stability in Sprague-Dawley rat gastric juice assessed as formation of (S)-(N,N-dimethylphenylalanyl)-(2S,3S)-3[(p-formylphenoxyl)leucyl]-(S)-leucine) after 30 mins by HPLC. The data set is classed as ADME, tissue-based. To be noted: 0.5 h.
Data set [12] relates to Serum. The data set can be described thus: Metabolic stability in human serum assessed as formation of (S)-(N,N-dimethylphenylalanyl)-(2S,3S)-3[(p-formylphenoxyl)leucyl]-(S)-leucine) after 1 hr by HPLC. The data set is classed as ADME, cell-free.
Data set [13] concerns Serum. In words: Metabolic stability in mouse serum assessed as formation of (S)-(N,N-dimethylphenylalanyl)-(2S,3S)-3[(p-formylphenoxyl)leucyl]-(S)-leucine) after 1 hr by HPLC. The data set is classed as ADME, cell-free.
Data set [14] in a line: Metabolic stability in Sprague-Dawley rat intestinal fluid assessed as formation of (S)-(N,N-dimethylphenylalanyl)-(2S,3S)-3[(p-formylphenoxyl)leucyl]-(S)-leucine) after 30 mins by HPLC. The format is ADME. To be noted: simulated gi fluid, 0.5 h.
Data set [15] concerns Serum. The data set can be described thus: Metabolic stability in Sprague-Dawley rat serum up to 3 hrs. The format is ADME, cell-free.
The test system of data set [16] is Serum. The data set can be described thus: Metabolic stability in Sprague-Dawley rat serum assessed as formation of (S)-(N,N-dimethylphenylalanyl)-(2S,3S)-3[(p-formylphenoxyl)leucyl]-(S)-leucine) after 5 mins by HPLC. The data set is classed as ADME, cell-free.
For data set [17], the system named is Serum. In words: Metabolic stability in Sprague-Dawley rat serum assessed as initial rate of compound cleavage at 0.10 mM after 10 mins by HPLC in presence of 2 mM bis-(p-nitrophenyl) phosphate. The format is ADME, cell-free. The conditions noted are these: 100 µM.

The structures appear in SMILES notation.

On to `CC(C)C[C@@H]1NC(=O)[C@@H](NC(=O)[C@H](Cc2ccccc2)N(C)C)[C@H](C(C)C)Oc2ccc(cc2)[C@@H](O)CNC1=O` [SANJOININE G1], for which the Activity result with Serum [1] is “Stable”.

With `CC(C)C[C@H]1NC(=O)[C@@H](NC(=O)[C@H](Cc2ccccc2)N(C)C)[C@H](C(C)C)Oc2ccc(cc2)/C=C\NC1=O` [SANJOININE AH1], in the data set on Serum [1], the Activity result is “Unstable”.

With `CC(C)C[C@@H]1NC(=O)[C@@H](NC(=O)[C@H](Cc2ccccc2)N(C)C)[C@H](C(C)C)Oc2ccc(cc2)CCNC1=O` [DIHYDROSANJOININE A], the Activity result with Serum [1] is listed as “Stable”.

`CO[C@H]1CNC(=O)[C@H](CC(C)C)NC(=O)[C@@H](NC(=O)[C@H](Cc2ccccc2)N(C)C)[C@H](C(C)C)Oc2ccc1cc2` [SANJOININE D]: the Activity result in the data set on Serum [1] is “Stable”.

For `CC(C)C[C@@H]1NC(=O)[C@@H](NC(=O)[C@H](Cc2ccccc2)N(C)C)[C@H](C(C)C)Oc2ccc(cc2)/C=C\NC1=O` [FRANGUFOLINE], the Stability in the data set on Serum [2] is recorded as 1.24 pmol/min/mg; with Serum [3] it was 1.3 pmol/min/mg; in the data set on Serum [4] it was “Unstable”; with Serum [5], “Stable”; in the data set on Serum [6] it was 1.44 pmol/min/mg; with Serum [7], “Unstable”. In addition, the Stability with Serum [8] was 0.352 pmol/min/mg; with Serum [9], 1.34 pmol/min/mg; in the data set on Serum [10], 0.376 pmol/min/mg; in [11] it was “Stable”; in the data set with Serum [12] it was “Stable”; with Serum [13], “Unstable”. For the same molecule, the Stability result is recorded as “Stable” in [14]; “Unstable” with Serum [1]; “Stable” in the data set with Serum [15]; “Unstable” in the data set on Serum [16]; 0.116 pmol/min/mg in the data set on Serum [17].

These data come from ChEMBL document CHEMBL1145723, “Metabolic cleavage of frangufoline in rodents: in vitro and in vivo study” (J Nat Prod, 1997).
